# From PubChem BioAssay AID1196 (NMMLSC, 2008)
# The source made the active and inactive calls. How the calls were made is not given here.
# Test system: prostate cell differentiation activation, dose response
# Experiment: prostate cell differentiation inducers, concentration series – secondary assay, dose response (AID 1196)
row,EC50,Compound
1,3.44 µM,Cc1oc(-c2ccc(Cl)cc2)nc1CN1CCC(C(=O)NCCCN2CCOCC2)CC1
2,1.81 µM,Cc1oc(-c2ccc(Cl)cc2)nc1CN1CCC(C(=O)N2CCN(Cc3ccccc3)CC2)CC1
3,2.68 µM,Cc1ccc(C)c(N2CCN(CCCNC(=O)Cn3cc4c(n3)CCCCC4)CC2)c1
4,5.47 µM,Cc1ccccc1-c1nc(CN2CCC(C(=O)NCCCN3CCOCC3)CC2)c(C)o1
5,5.53 µM,CN(C)c1ccc(CNC2CC(C)(C)NC(C)(C)C2)cc1
6,2.89 µM,COc1ccc(Nc2nc(N)nc(CN3CCC(Cc4ccccc4)CC3)n2)cc1
7,9.37 µM,Cn1c(=O)cc(SCC(=O)NCCCN2CCN(c3ccccc3F)CC2)c2ccccc21
8,5.88 µM,CCN(CC)CCNC(=O)c1ccc(N2CCCCC2)c(NS(=O)(=O)c2ccc(C)cc2)c1
9,29.2 µM (inactive),COc1ccc(CCn2c(=N)c(C(=O)NCc3ccco3)cc3c(=O)n4ccccc4nc32)cc1
10,17.1 µM (inactive),O=C(NCCCN1CCN(c2cccc(Cl)c2)CC1)c1cccc(N2CCCC2=O)c1
11,5.27 µM,CCN1CCN(c2ncc(C(=O)Nc3cc(Cl)c(OC)cc3OC)c3ccccc23)CC1
12,2.21 µM,N=c1n(CCN2CCCCC2)c2ccccc2n1CC(O)COc1ccccc1 (stereo not given)
13,9.05 µM,CCn1c(=O)cc(SCC(=O)NCCCN2CCN(c3ccccc3F)CC2)c2ccccc21
14,5.34 µM,Cn1nc(-c2ccc(Cl)cc2)c2cc(C(=O)NCCCN3CCOCC3)sc21
15,11.7 µM (inactive),Cc1ccccc1-c1nc(CN2CCCC(C(=O)NCCCN3CCOCC3)C2)c(C)o1 (stereo not given)
16,0.0873 µM,Cc1ccc(Nc2cc(=O)n(C3CCCCC3)c(=O)[nH]2)cc1C
17,8.34 µM,COc1cc2nc(N3CCN(C(=O)C4COc5ccccc5O4)CC3)nc(N)c2cc1OC (stereo not given)
18,1.16 µM,CCN1CCCC1CNC(=O)C1CCN(Cc2nc(-c3cccc(Br)c3)oc2C)CC1 (stereo not given)
19,12.5 µM (inactive),Cc1ccccc1-c1nc(CN2CCC(C(=O)NCc3cccnc3)CC2)c(C)o1
20,0.239 µM,CCCOc1ccccc1C1CC(=O)Nc2cc3c(cc21)OCO3 (stereo not given)
21,6.04 µM,Cc1ccc2c(c1)-c1c(cnn1CC(=O)Nc1ccccc1N1CCN(C)CC1)CO2
22,0.277 µM,CCOc1ccc(NC(=O)COc2nsnc2N2CCCCC2)cc1
23,11.1 µM (inactive),Cn1c(C(=O)NCCCN2CCN(c3cccc(Cl)c3)CC2)cc2c(=O)n(C)c3ccccc3c21

row,EC50,Compound
1,8.92 µM,CCOc1ccccc1NC(=O)c1nc[nH]c1C(=O)Nc1ccccc1OCC
2,2.48 µM,CCN(CC)CCNC(=O)c1cc2c(-c3ccc(Cl)cc3)nn(C)c2s1
3,6.5 µM,CCCN(CCC)CCNC(=O)C1CCN(Cc2nc(-c3ccc(Cl)cc3)oc2C)CC1
4,3.03 µM,CCOc1cccc2cc(-c3cn4cc(C)ccc4n3)c(=O)oc12
5,1.51 µM,CCN1CCCC1CNC(=O)c1cc2c(-c3ccc(Cl)cc3)nn(C)c2s1 (stereo not given)
6,3.87 µM,COc1ccc2cc3cc(C(=O)Nc4ccccc4N4CCN(C)CC4)oc3nc2c1
7,2.85 µM,CCN(CC)CCCNC(=O)c1cc2c(-c3ccc(Cl)cc3)nn(C)c2s1
8,0.218 µM,CCOC(=O)c1ccccc1NC(=O)Cn1c(-c2nonc2N)nc2ccccc21
9,7.46 µM,Cc1ccccc1CS(=O)(=O)CCC(=O)NCCCN1CCN(c2ccccc2F)CC1
10,20.4 µM (inactive),CCn1c(=O)cc(SCC(=O)NCCN2CCN(Cc3ccccc3)CC2)c2ccccc21
11,10.3 µM (inactive),COc1ccc(-c2noc(-c3cc(Cl)ccc3Cl)n2)cc1OC
12,1.46 µM,CN(C)CCCN1c2ccccc2CCc2ccc(Cl)cc21
13,8.46 µM,COc1ccc(-c2ccc(-c3noc(-c4ccccc4)n3)c(OC)n2)cc1
14,16.2 µM (inactive),CC1CCCCN1CCNC(=O)c1ccc2c(=O)n(CCc3ccccc3)c(=O)[nH]c2c1 (stereo not given)
15,2.67 µM,COc1ccccc1NC(=O)c1nc[nH]c1C(=O)Nc1ccccc1OC
16,27.8 µM (inactive),Cn1c(=O)cc(OCC(=O)NCCCN2CCN(c3ccccc3F)CC2)c2ccccc21
17,1.47 µM,Cc1ccc(OCC(O)Cn2c(=N)n(CCN3CCCCC3)c3ccccc32)cc1 (stereo not given)
18,3.37 µM,CCN1CCN(c2cc(C)c3cc(NC(=O)c4ccc(Br)o4)ccc3n2)CC1
19,16.8 µM (inactive),CCN1CCN(C(c2cccs2)C(C)NS(=O)(=O)c2ccc(Br)cc2)CC1 (stereo not given)
20,6.46 µM,CCN1CCN(CCNC(=O)C2CCN(Cc3nc(-c4ccc(Cl)cc4)oc3C)CC2)CC1
21,1.27 µM,Cc1ccccc1-c1nc(CN2CCC(C(=O)NCCCN3CC(C)CC(C)C3)CC2)c(C)o1 (stereo not given)
22,2.21 µM,Cc1cc(N2CCN(C)CC2)nc2ccc(NC(=O)c3ccc(Br)o3)cc12
